Consider twelve compounds from patent publication US8680288B2, “Pyridin-2yl sulfanyl acid esters and process for the preparation thereof” (Council of Scientific & Industrial Research, priority 2010, dated 2014).

The subject of data set [1] is adhesion of neutrophils onto human umbilical vein endothelial cells (HUVECs). The data set is described as follows: Neutrophil adhesion assay on LPS-induced endothelial cells (static conditions). The data set is classed as cell-based. Conditions: LPS (1 μg/ml) 6 hrs; for IC50: HUVEC, read-out: Neutrophil Adhesion Inhibition IC50. On the procedure:
(§1) Primary endothelial cells were isolated from human umbilical cord using mild trypsinization (Kumar, S., Arya, P., Mukherjee, C., Singh, B. K., Singh, N., Parmar, V. S., Prasad, A. K., Ghosh, B. Novel Aromatic Ester from Piper longum and Its Analogues Inhibit Expression of Cell Adhesion Molecules on Endothelial Cells. Biochemistry. 2005, 44, 15944-15952). The cells were grown in M199 medium (Sigma, USA) supplemented with 15% heat inactivated fetal calf serum (Biological Industries, Israel), 2 mM L-glutamine (Sigma, USA), 100 units/ml penicillin (Sigma, USA), 100 μg/ml streptomycin (Sigma, USA), 0.25 μg/ml amphotericin B (Sigma, USA), endothelial cell growth factor (50 μg/ml) (Sigma, USA). At confluence, the cells were subcultured using 0.05% trypsin-0.01 M EDTA solution and were used between passages three to four.
Neutrophils were isolated from peripheral blood of healthy individuals (Kumar S et al, 2005). Blood was collected in heparin solution (20 U/ml) and erythrocytes were removed by sedimentation against 6% dextran solution. Plasma, rich in white blood cells, was layered over Ficoll-Hypaque solution (Sigma, USA), followed by centrifugation (300 g for 20 min, 20° C.). The top saline layer and the Ficoll-Hypaque layer were aspirated leaving neutrophils/RBC pellet. The residual red blood cells were removed by hypotonic lysis. Isolated cells were washed with PBS and resuspended in PBS containing 5 mM glucose, 1 mM CaCl2, and 1 mM MgCl2 at a final concentration of 6×10^5 cells/ml.
Neutrophil adhesion assay was performed under static conditions as described previously (Kumar S et al, 2005). Briefly, endothelial cells plated in 96-well culture plates were incubated with or without RS—Z at desired concentrations for 2 hrs, followed by induction with LPS (1 μg/ml) for 6 hrs. Endothelial monolayers were washed with PBS and neutrophils (6×10^4/well) were added over it and were allowed to adhere for 1 hr at 37° C. The non-adherent neutrophils were washed with PBS and neutrophils bound to endothelial cells were assayed by adding a substrate solution consisting of o-phenylenediamine dihydrochloride (40 mg/100 ml in citrate phosphate buffer, pH 4.5), 0.1% cetrimethyl ammonium bromide, and 3-amino-1,2,4 triazole (1 mM). The absorbance was read at 490 nm using an automated microplate reader (Model 680, Bio-Rad, USA).

Data set [2] relates to ICAM-1 (Intercellular cell adhesion molecule-1). In words: Cell-ELISA for measurement of LPS-induced ICAM-1 expression on endothelial cells. The data set is classed as cell-based. To be noted: LPS (1 μg/ml) 16 hrs, human endothelial cells, read-out: ICAM-1 inhibition IC50. On the procedure:
as §1
Cell-ELISA was used for measuring the expression of ICAM-1 on surface of endothelial cells (Kumar S et al, 2005) Endothelial cells were incubated with or without the test compounds at desired concentrations for the required period, followed by treatment with LPS (1 μg/ml) (BD, USA) for 16 hrs for ICAM-1 expression. The cells were fixed with 1.0% glutaraldehyde (Sigma, USA). Non-specific binding of antibody was blocked by using skimmed milk (3.0% in PBS). Cells were incubated overnight at 4° C. with anti-ICAM-1 mAb (BD, USA), diluted in blocking buffer, the cells were further washed with PBS and incubated with peroxidase-conjugated goat anti-mouse secondary antibody (Sigma, USA). After washings, cells were exposed to the peroxidase substrate (o-phenylenediamine dihydrochloride 40 mg/100 ml in citrate phosphate buffer, pH 4.5). Reaction was stopped by the addition of 2 N sulfuric acid and absorbance at 490 nm was measured using microplate reader (Spectramax 190, Molecular Devices, USA).

In data set [3] the test system is human umbilical vein endothelial cell (HUVEC). The data set is described as follows: Cell viability (MTT) assay on endothelial cells. The data set is classed as cell-based. To be noted: Concentration of compounds where >95% cells are viable. The protocol:
as §1
The cytotoxicity of these compounds was analyzed by colorimetric MTT (methylthiazolydiphenyl-tetrazolium bromide, Sigma, USA) assay as described (Kumar S et al, 2005). Briefly, endothelial cells were treated with DMSO alone (0.25%, as vehicle) or with different concentrations of compounds for 24 hrs. Four hrs before the end of incubation, medium was removed and 100 μl MTT (5 mg/ml in serum free medium) was added to each well. The MTT was removed after 4 hrs, cells were washed out with PBS (phosphate buffered saline, pH 7.4), and 100 μl DMSO was added to each well to dissolve water insoluble MTT-formazan crystals. Absorbance was recorded at 570 nm in an ELISA reader (Bio-Rad, Model 680, USA). All experiments were performed at least 3 times in triplicate wells.

The test system of the next data set is acute lung Injury model. To be noted: literature reference; cited from earlier work.
The subject of data set [4] is LPS induced acute lung injury. In words: LPS aerosol induced acute lung injury model in mice (BALF cell counts, lung injury score). It is filed as in vivo. Conditions: for Neutrophil count in the BALF / neutrophil influx in the lungs / Lung injury score / LPS-induced lung injury: post-treatment i.p. 0.1, 1.0 and 10 mg/kg; for Neutrophil count in the BALF / neutrophil influx in the lungs: FIG. 2B; for Lung injury score / LPS-induced lung injury: FIG. 3. The protocol:
BALB/c male mice 10 weeks old were randomly divided into 5 groups with 6 mice in each group.
Group 1: saline challenged/vehicle (0.25% CMC) treated
Group 2: LPS challenged/vehicle treated
Group 3: LPS challenged/RS—Z (0.1 mg/kg in 0.25% CMC) treated
Group 4: LPS challenged/RS—Z (1 mg/kg in 0.25% CMC) treated
Group 5: LPS challenged/RS—Z (10 mg/kg in 0.25% CMC) treated
Mice in Groups 2, 3, 4 and 5 were challenged with an aerosol of LPS (E. coli strain 026:B6) at a concentration of 300 μg/ml in normal saline for 30 minutes. Mice were placed in a Plexiglas chamber (20×20×10 cm^3) and exposed to an aerosol generated from a nebulizer (Omtron model, USA) with an airflow rate of 9 L/min. Group 1(Control) mice were challenged with saline alone.
Mice were treated with either vehicle or RS—Z thirty minutes after the LPS challenge. Mice in group 1 (control) and Group 2 (LPS challenged) were vehicle (0.25% CMC) treated intraperitoneally (i.p.). Mice in Group 3 were treated with RS—Z at a dose of 0.1 mg/kg body weight by i.p. injection. Mice in Group 4 were treated with RS—Z at a dose of 1.0 mg/kg body weight by i.p. injection. Group 5 were treated with RS—Z at a dose of 10 mg/kg body weight by i.p. injection.
Mice were sacrificed three hrs after the LPS challenge using an overdose of sodium pentothal (100 mg/kg, i.p.). The trachea were cannulated and 0.5 ml of PBS (phosphate buffered saline) was used for lavage at a time and this step was repeated three times. About 1.5 ml of BAL fluid was recovered per mouse. The BAL fluid was centrifuged (400×g, 4° C., 6 min) and the supernatant was kept at −70° C. until analyzed for biochemical parameters. The BAL cells were washed three times with PBS and the pellet was resuspended in 200 μl cold PBS. For total cell counts, BAL cell suspension was diluted 1:20 in PBS and cells were counted in a hemocytometer. For differential counts, BALF cell suspension smear was made on glass slides followed by Leishman's stain. The cells were identified and counted by standard methodology. At least 300 cell (all types) per slide were counted and the percentage of neutrophils was calculated.
The excised lung portions from all the groups was fixed in 10% Buffered formalin. The fixed tissue was embedded in paraffin, sectioned into 4 μm and stained with haematoxylin-eosin for observation under the light microscope. The injury was scored with a semi-quantitative grading system based on the structure changes edema, alveolar and interstitial hemorrhage and inflammatory cells sequestration (Matthay M A, Zimmerman G A, Esmon C, Bhattacharya J, Caller B, et al. (2003) Future research directions in acute lung injury: Summary of a National Heart, Lung, and Blood Institute working group. Am J Respir Crit. Care Med 167: 1027-1035). Semi-quantitative grading system was a 0-to-4 point grading system: 0=No injury, 1=25% injury in a light microscope field, 2=50% injury in a light microscope field, 3=75% injury in a light microscope field, 4= almost 100% injury in a light microscope field. Five light microscopic fields were analyzed for a particular pathological specimen to determine mice lung injury score.

[5] abbreviates: reference compound, value in mM.
Setting [6] is: vs. LPS aerosol/vehicle IP, listed as formula 1a.

The structures appear in SMILES notation. “Also recorded” adds a separate entry of the source. Where two headings read alike, the source gives them in different places.

As usually defined, the IC50 is the concentration that inhibits the measured activity by half. `CCCOC(=O)CCCC(Sc1ccccn1)C(=O)OC` (stereo not drawn) [AD-20, 2-(2-pyridylthio)-hexanedioic acid 1-methyl ester 6-propyl ester]: the “Neutrophil Adhesion Inhibition IC50” value in data set [1] is reported as “not significant”. In addition, the IC50 in data set [2] came to 0.178 ± 0.00081 mM. Also, the Max. tolerable dose in data set [3] (24 hrs, MTT) is 0.25 mM.

On to `COC(=O)C(CCCC(=O)OC1CCCCC1)Sc1ccccn1` (stereo not drawn) [AD-21, 2-(2-pyridylthio)-hexanedioic acid 6-cyclohexyl ester 1-methyl ester], for which, in data set [1], the “Neutrophil Adhesion Inhibition IC50” value was “not significant”. The IC50 in data set [2] is 0.117 ± 0.00092 mM. For the same compound, the Max. tolerable dose in data set [3] (24 hrs, MTT) came out at 0.25 mM.

Take `CCOC(=O)CCCCCCCC(Sc1ccccn1)C(=O)OC` (stereo not drawn) [AD-32, 2-(2-pyridylthio)-decanedioic acid-10-ethyl ester 1-methyl ester]: the “Neutrophil Adhesion Inhibition IC50” value in data set [1] was “not significant”. In addition, the IC50 in data set [2] worked out at 0.1 ± 0.00096 mM. In data set [3] (24 hrs, MTT), this compound came in with a Max. tolerable dose of 0.25 mM.

For `CCCCCOC(=O)CCCC(Sc1ccccn1)C(=O)OC` (stereo not drawn) [AD—Z, 2-(2-pyridylthio)-hexanedioic acid-1-methyl ester 6-pentyl ester], the “Neutrophil Adhesion Inhibition IC50” value in data set [1] is listed as “not significant”. Further, the IC50 in data set [2] was 0.085 ± 0.00152 mM. In data set [3] (24 hrs, MTT), this compound showed a Max. tolerable dose of 0.25 mM.

For `CC(=O)N[C@@H](CS)C(=O)O` [NAC, N-acetyl cysteine, reference compound], the “Neutrophil Adhesion Inhibition IC50” value in data set [1] is listed as “not significant”. For the same compound, the IC50 in data set [2] (setting [5]) turned out to be 6.68 mM. Also, in the data set with acute lung Injury model, the “Efficacious Dose” value is 150 mg/kg. Besides, in data set [3] (setting [5]), the Max. tolerable dose stood at 20 mM.

Consider `CCCCOC(=O)CCSc1ccccn1` [RS-20, 3-(2-pyridylthio)propionic acid butyl ester], for which the IC50 in data set [1] came out at 85 ± 0.94 µM; in data set [2], 0.079 ± 0.00073 mM. In addition, the Max. tolerable dose in data set [3] (24 hrs, MTT) amounted to 0.5 mM.

On to `O=C(CCSc1ccccn1)OC1CCCCC1` [RS-21, 3-(2-pyridylthio)propionic acid cyclohexyl ester], for which, in data set [1], the “Neutrophil Adhesion Inhibition IC50” value is reported as “not significant”. Further, the IC50 in data set [2] came to 0.135 ± 0.00082 mM. In data set [3] (24 hrs, MTT), this compound had a Max. tolerable dose of 0.25 mM.

For `CCOC(=O)CCCCCCSc1ccccn1` [RS-32, 7-(2-pyridylthio)heptanoic acid ethyl ester], the figures for the IC50 in data set [1] and in data set [2] were 94 ± 0.92 µM and 0.097 ± 0.00063 mM, respectively. In data set [3] (24 hrs, MTT), this compound registered a Max. tolerable dose of 0.5 mM.

For `CCCCCOC(=O)CCSc1ccccn1` [RS—Z, 3-(2-pyridylthio)propionic acid pentyl ester], the IC50 in data set [1] turned out to be 61 µM; in data set [2] it was 0.05 mM. The “Lung injury caused by bacterial polysaccharide challenge” value in data set [4] (10 mg/kg body weight) is reported as “significantly reduced”. Further, in data set [4] (10 mg/kg body weight intraperitoneally), the Pulmonary neutrophil infiltration entry is reported as “significantly alleviate”. The “Efficacious Dose” value in data set [4] (acute lung injury model, mice, i.p.) is 10 mg/kg. For the same compound, in data set [4] (post-treatment IP 0.1, 1, 10 mg/kg, vs. LPS aerosol/vehicle IP, FIG. 2A), the “Total cell counts in the BALF” value was “dose-dependently reduced”. In addition, the figures for the “Neutrophil count in the BALF / neutrophil influx in the lungs” value in data set [4] (vs. LPS aerosol/vehicle IP) and in data set [4] (setting [6]) were “reduction of the neutrophil influx; also recorded: dose-dependently reduced” and “Reduction of the neutrophil influx”, respectively. The “Lung injury score / LPS-induced lung injury” value was “attenuation of the LPS-induced lung injury; also recorded: dose-dependently reduced” in data set [4] (vs. LPS aerosol/vehicle IP) and “Attenuation of the LPS-induced lung injury” in data set [4] (setting [6]). In data set [3] (24 hrs, MTT), this compound displayed a Max. tolerable dose of 0.5 mM.

With `COc1ccc(C2CNC(=O)C2)cc1OC1CCCC1` (stereo not drawn) [Rolipram], in the data set with acute lung Injury model, the “Efficacious Dose” value was 5 mg/kg.

Take `O=C1CCC(N2C(=O)c3ccccc3C2=O)C(=O)N1` (stereo not drawn) [Thalidomide, α-N-phthalimidoglutarimide]: the “Efficacious Dose” value in the data set with acute lung Injury model is reported as 100 mg/kg.

On to `Cc1c(C)c2c(c(C)c1O)CCC(C)(C[C@H]1O[C@H](CO)[C@@H](O)[C@H](O)[C@H]1O)O2` (stereo partly drawn) [Water-soluble Vitamin E derivative, (α-D-glucopyranosyl)methyl-2,5,7,8-(tetramethyl)chroman-6-ol], for which, in the data set on acute lung Injury model, the “Efficacious Dose” value was 10 mg/kg.
